Assay results: the NIST ThermoML archive (doi:10.1016/j.fluid.2010.10.022)

Test: excess molar enthalpy (molar enthalpy of mixing); xn = mol fraction of the nth substance listed
Details: 298.15 K, 101 kPa, Liquid, Flow calorimetry

C#CCCCC [1-hexyne] + CCCOC(C)=O
Details | excess molar enthalpy [kcal/mol]
x2 = 0.1079 | -0.0304
x2 = 0.1967 | -0.0477
x2 = 0.3032 | -0.0608
x2 = 0.395 | -0.066
x2 = 0.4373 | -0.0664
x2 = 0.5003 | -0.0654
x2 = 0.595 | -0.0605
x2 = 0.6575 | -0.0553
x2 = 0.6989 | -0.0511
x2 = 0.7967 | -0.038
x2 = 0.8992 | -0.0205

CC#CCCC [2-hexyne] + CCCOC(C)=O
Details | excess molar enthalpy [kcal/mol]
x2 = 0.1094 | 0.0106
x2 = 0.204 | 0.0174
x2 = 0.3153 | 0.022
x2 = 0.4179 | 0.0249
x2 = 0.5044 | 0.0245
x2 = 0.5938 | 0.0215
x2 = 0.7075 | 0.0157
x2 = 0.7983 | 0.0108
x2 = 0.8927 | 0.00645

CCC#CCC [3-hexyne] + CCCOC(C)=O
Details | excess molar enthalpy [kcal/mol]
x2 = 0.0968 | 0.0105
x2 = 0.202 | 0.0186
x2 = 0.3025 | 0.0269
x2 = 0.4063 | 0.0341
x2 = 0.4979 | 0.0377
x2 = 0.5956 | 0.0353
x2 = 0.7045 | 0.0267
x2 = 0.7995 | 0.0182
x2 = 0.8928 | 0.0101
